Series [1] relates to KRAS^G12C-mutated MIA-PA-CA-2 cells. Put plainly: cells. To be noted: Homo sapiens, MIA PaCa-2, 72 h. The method, then:
The main reagent used in this assay included CellTiter-Glo (Promega, Cat. No. G7573).
The main instrument used in this assay was PerkinElmer EnVision multi-function microplate reader.
The fluorescence value was read by EnVision. • 6) Data analysis: The inhibition rate of cells in each well was calculated according to the following equation:
Y=Bottom+(Top−Bottom)/(1+10^((Log IC50−X)*HillSlope))

Series [2] can be described thus: In vitro stability in liver microsomes, SD rats. In kind it is in vitro ADME. To be noted: rat, 0.5 mg/mL. On the procedure:
(§1) Metabolic stabilities of the assay compound in liver microsomes of CD-1 mice, SD rats, beagle dogs, cynomolgus monkeys, and human were assayed, respectively.
(§2) Two 96-well incubation plates were prepared and named T60 incubation plate and NCF60 incubation plate, respectively. 445 μL of microsomal working solutions (liver microsomal protein concentration of 0.56 mg/mL) were added to the T60 incubation plate and the NCF60 incubation plate, respectively, and then the above incubation plates were pre-incubated in a 37° C. water bath for about 10 minutes.
(§3) After the pre-incubation, 5 μL of working solutions of the assay sample or the control compound were added to the T60 incubation plate and the NCF60 incubation plate, respectively, and the mixture was mixed well. 50 μL of potassium phosphate buffer was added to each well of the NCF60 incubation plate to initiate the reaction. 180 μL of stop solution (200 ng/mL tolbutamide and 200 ng/mL labetalol in acetonitrile) and 6 uL of NADPH regeneration system working solution were added to the T0 stop plate, and 54 μL of sample was transferred from T60 incubation plate to T0 stop plate (generation of T0 sample). The reaction was initiated by adding 44 μL of NADPH regeneration system working solution to each well of the T60 incubation plate. Only 54 μL of microsome working solution, 6 uL of NADPH regeneration system working solution and 180 μL of stop solution were added to the Blank plate. Therefore, in samples of the assay compound or the control compound, the final reaction concentration of compound, testosterone, diclofenac and propafenone was 1 μM, the concentration of liver microsomes was 0.5 mg/mL, and the final reaction concentrations of DMSO and acetonitrile in the reaction system were 0.01% (v/v) and 0.99% (v/v), respectively. […] All samples were injected and analyzed by liquid chromatography-tandem mass spectrometry.

Series [3] is described as follows: In vitro stability in liver microsomes, human. In kind it is in vitro ADME. As to conditions: 0.5 mg/mL. The method, then: as §1, §2, §3
(Liver microsomes are a subcellular fraction often used to study metabolism.)

Series [4] in a line: Stability in whole blood, cynomolgus monkeys. In kind it is in vitro ADME. To be noted: 5 μM, 37° C. On the procedure: Stabilities of the assay compound in whole blood of CD-1 mice, SD rats, beagle dogs and cynomolgus monkeys were assayed, respectively. On the day of the assay or the day before the assay, fresh whole blood from CD-1 mice, SD rats, beagle dogs, and cynomolgus monkeys was collected using anticoagulant EDTA-K2. Prior to the start of the assay, the whole blood was mixed with PBS in 1:1 (v: v) and the mixture was preheated in a 37° C. water bath for 10 to 20 minutes. 96-well incubation plates were prepared and named T0, T30, T60, […], respectively. In the corresponding incubation plates, including T0, T30, T60 and […] incubation plates, 2 μL of working solutions of the compound or the control compound were mixed with 98 μL of blank whole blood of mice, rats, canines, monkeys and human in duplicate. All samples were incubated in a 37° C. water bath. The final incubation concentration of the compound was 5 μM and the final incubation concentration of the control compound was 2 μM. At the end of incubation for each time point, the corresponding incubation plate was removed and 100 μL of ultrapure water was immediately added to the corresponding sample wells, and mixed well. 800 μL of a solution of 200 ng/mL tolbutamide and labetalol in acetonitrile was added to precipitate the protein. […] 150 μL of supernatant was taken out and analyzed by LC/MS/MS.

The nature of series [5]: Protein binding rate in plasma by equilibrium dialysis, SD rats. The class given is in vitro ADME. On the procedure:
Protein binding rate of the assay compound in plasma of CD-1 mice, SD rats, beagle dogs, cynomolgus monkeys and human was determined by equilibrium dialysis.
Plasma samples with a compound concentration of 2 μM were prepared using plasma of the above five species, placed in a 96-well equilibrium dialysis device, and dialyzed with phosphate buffer solution at 37±1° C. for 4 hours. Warfarin was used as the control compound in this assay. The concentrations of the assay compound in plasma and dialysis buffer were determined by LC-MS/MS method.

Series [6] is described as follows: Protein binding rate in plasma by equilibrium dialysis, cynomolgus monkeys. The class given is in vitro ADME. As to conditions: 2 μM, equilibrium dialysis 4 hours. The method, then: Protein binding rate of the assay compound in plasma of CD-1 mice, SD rats, beagle dogs, cynomolgus monkeys and human was determined by equilibrium dialysis. Plasma samples with a compound concentration of 2 μM were prepared using plasma of the above five species, placed in a 96-well equilibrium dialysis device, and dialyzed with phosphate buffer solution at 37±1° C. for 4 hours. Warfarin was used as the control compound in this assay. The concentrations of the assay compound in plasma and dialysis buffer were determined by LC-MS/MS method.
A general note: Equilibrium dialysis compares concentrations on both sides of a semipermeable membrane.

The nature of series [7]: Pharmacokinetics by oral administration and intravenous injection in SD rats. In kind it is in vivo. As to conditions: for Area under the plasma concentration-time curve, AUCu: AUC0-last × PPB(Unbound %); for Vd: SD, iv, 2 mg/kg; for AUC(0-t): read-out: Area under the plasma concentration-time curve, AUC0-last. The method, then:
• 1) Assay on the pharmacokinetics of the assay compound by oral administration and intravenous injection in SD rats
The assay compound was mixed with 5% o dimethyl sulfoxide/95% o (10% hydroxypropyl-β-cyclodextrin) solution. The mixture was vortexed and sonicated to prepare a 1 mg/mL clear solution, which was filtered through a microporous membrane for later use. Male SD rats aged 7 to 10 weeks were selected, and administered candidate compound solutions intravenously or orally. Whole blood was collected for a certain period of time, and prepared to obtain plasma. Drug concentration was analyzed by LC-MS/MS method, and pharmacokinetic parameters were calculated by Phoenix WinNonlin software (Pharsight, USA).

The values that follow come from patent publication US20250129102A1, “CRYSTAL FORM OF PYRIMIDINE HETEROCYCLIC COMPOUND AND PREPARATION METHOD THEREFOR” (D3 Bio (Wuxi) Co., Ltd., priority 2021, published 2025).

Where two headings read alike, the source gives them in different places.

In series [1], `C=C(F)C(=O)N1CCN(c2nc(OC[C@@]34CCCN3C[C@H](F)C4)nc3c2CO[C@H](c2c(F)c(N)cc(C)c2C(F)(F)F)C3)C[C@@H]1CC#N` [Compound of formula (I)] came in with an IC50 of 0.44 nM. Moreover, the intrinsic clearance (CLint scaled) at 1 μM was 6.5 L/h/kg in series [2] and 3.67 L/h/kg in series [3]. The half-life at 1 μM amounted to 23 min in series [2] and 20.4 min in series [3]. For the same compound, the microsomal CLint at 1 μM in series [2] (read-out: CLint(hep)) is 60.2 µL/min/mg; in series [3] (read-out: CLint(hep)), 67.9 µL/min/mg. In addition, the “Detection of assay compound content within 240 min” value in series [4] stood at 77%. Besides, the “Protein unbound rate (%)” value in series [5] (SD rats plasma, 2 μM, equilibrium dialysis 4 hours) is recorded as 4.8%; in series [6], 7.8%. Further, the fraction unbound at 4 h, 2 μM in series [5] (plasma, value used in the SD rat PK table, read-out: Plasma protein unbound rate PPB (Unbound %)) is 0.048. Moreover, the “Area under the plasma concentration-time curve, AUCu” value in series [7] (intravenous injection, 2.0 mg/kg) worked out at 31.3 nM·h; in series [7] (oral administration, 9.8 mg/kg), 47.8 nM·h. Moreover, the Vd in series [7] (male, rat, plasma, intravenous injection, 2.0 mg/kg, Vdss/PPB(Unbound %), read-out: Apparent volume of distribution, Vdss, u) came to 221 L/kg; in series [7] (male, rat, plasma, intravenous injection, 2.0 mg/kg, read-out: Apparent volume of distribution, Vdss) it was 10.6 L/kg. Besides, the AUC(0-t) in series [7] (male, rat, plasma, intravenous injection, 2.0 mg/kg) was found to be 653 nM·h; in series [7] (male, rat, plasma, oral administration, 9.8 mg/kg) it was 995 nM·h. In series [7] (male, rat, plasma, intravenous injection, 2.0 mg/kg, read-out: Clearance rate, CL), the clearance came out at 4.29 L/h/kg. In series [7] (male, rat, plasma, intravenous injection, 2.0 mg/kg, read-out: Half-life time, T1/2 (converted)), the half-life is 114 min. For the same compound, in series [7] (male, rat, plasma, oral administration, 9.8 mg/kg, read-out: Bioavailability F (%)), the bioavailability is 30.5%. In series [7] (male, rat, plasma, oral administration, 9.8 mg/kg, read-out: Peak concentration, Cmax), the Cmax was 0.22 µM. In addition, the Tmax in series [7] (male, rat, plasma, oral administration, 9.8 mg/kg, read-out: Time-to-peak, Tmax) is 90 min. Further, the “Peak concentration, Cmax, u” value in series [7] (oral administration, 9.8 mg/kg, Cmax × PPB(Unbound %)) amounted to 0.0106 µM.

A word on the IC50: it is the point on the concentration scale where inhibition reaches its midpoint. High values mean weaker potency in that assay, low ones greater potency in that assay. By CLint scaled is commonly meant the capacity of the preparation to metabolise the compound, expressed as a volume cleared per time. Usually bioavailability stands for the share of a dose that reaches the circulation, judged against a reference dose that is usually intravenous. In general, Tmax refers to the time from dosing to the highest level.
